One compound from patent US20240270786A1, “STEROID COMPOUNDS” (Epirium Bio Inc., priority 2022, published 2024) can be followed below.

What all share (type): biochemical, mouse
In assay [1] the test system is mitochondrial ATP synthase. Nature of the assay: Maximal ATP hydrolysis capacity in frozen heart mitochondria. To be noted: oligomycin at different concentrations in the assay media.
Protocol: Plates were loaded with 0.75-1.5 μg of mouse heart mitochondria, or 25 μg of cell lysate. Cell lysates were prepared by subjecting the samples to 4 cycles of free thaw (liquid nitrogen—37° C. water bath) before measuring protein concentration. When assessing compounds effect on respirometry, the compounds were added in MAS after sample centrifugation. Initial respiration of the samples was sustained by the addition of 5 mM succinate+2 μM rotenone in the MAS after centrifugation. Injections were performed at the following final concentration in the well: Antimycin A (2 μM), oligomycin (5 μM), FCCP (1 μM), ATP (20 mM). To assess maximal ATP concentration, ATP was injected consecutively. An additional assay was developed to determine the maximal ATP hydrolysis capacity in frozen mitochondria. Maximal ATP hydrolytic capacity was assessed in frozen heart mitochondria where mitochondrial respiration is inhibited by Antimycin A and maximal ATP hydrolysis is driven by co-injection of FCCP and ATP, followed by inhibition in the presence of oligomycin.
Assay [2] has as its system mitochondrial ATP synthase. Briefly: ATP hydrolysis (acidification, Seahorse XF96) in fresh heart mitochondria. The following applies: fresh heart mitochondria (FIG. 1, FIG. 2). The text has this:
(§1) To assess whether the fraction of synthetic and reverse hydrolytic activities of mitochondrial ATP synthase can be measured in the same preparation, a protocol was developed to monitor changes in oxygen consumption and proton release in response to changes in mitochondrial ATP synthase activity. The proton released and the concomitant changes in the pH can be monitored using the ECAR (extracellular acidification) channel in the Agilent Seahorse XF analyzer using isolated mitochondria, to ensure that the changes in pH cannot be attributed to glycolysis or other contributors to ECAR.
Mice were anesthetized with isoflurane followed by a cervical dislocation, and the heart was immediately removed and placed in ice cold relaxation buffer (5 mM sodium pyrophosphate, 100 mM KCl, 5 mM EGTA, 5 mM HEPES; pH 7.4). The heart was squeezed with tweezers to remove blood, minced with scissors, and then placed in a glass-glass Dounce homogenizer with 3 mL of HES homogenization buffer (250 mM sucrose, 5 mM HEPES, 1 mM EDTA; pH to 7.2, adjusted with KOH). The heart tissue was homogenized first with the loose pestle and followed by the tight pestle. The homogenized tissue was placed in a pre-chilled 15 mL conical tube and centrifuged at 900×g (4° C.) for 10 minutes (min). The supernatant was removed, placed in a new tube and centrifuged again at 900×g for 10 min. The supernatant was then transferred to 2 mL microcentrifuge tubes and centrifuged at 10,000×g (4° C.) for 10 min. The mitochondrial pellets were re-suspended in ice cold HES buffer and mitochondrial protein was measured with a BCA assay (Pierce). The concentrated mitochondrial pellet was stored on ice. […]
ATP hydrolysis capacity or state 4 acidification was measured using Seahorse XF96 as described in Divakaruni et al. (2018) Anal Biochem 552:60-65 and Acin-Perez et al. (2021) Life 11(9):949, in MAS (70 mM Sucrose, 220 mM Mannitol, 5 mM KH2PO4, 5 mM MgCl2, 1 mM EGTA, 2 mM HEPES; pH 7.2). […]

Assay [3] deals with mitochondrial ATP synthase. Nature of the assay: ATP synthesis (oxygen consumption, Seahorse XF96) in fresh heart mitochondria. The following applies: Complex I or Complex II substrates (FIG. 1, FIG. 2).
Text: as §1
Mice were anesthetized with isoflurane followed by a cervical dislocation, and the heart was immediately removed and placed in ice cold relaxation buffer (5 mM sodium pyrophosphate, 100 mM KCl, 5 mM EGTA, 5 mM HEPES; pH 7.4). […] The mitochondrial pellets were re-suspended in ice cold HES buffer and mitochondrial protein was measured with a BCA assay (Pierce). […]
Oxygen consumption was measured in isolated fresh intact mitochondria from mouse heart, as oxygen consumption is linked to maximal ATP synthesis and proton release when mitochondria are respiring either in the presence of substrates and ADP (ATP synthesizing mitochondria or state 3) or in the presence of substrates but not ADP (state 4). […]

With `CC[C@H]1/C=C/C=C/C[C@@H](C)[C@H](O)[C@@](C)(O)C(=O)[C@@H](C)[C@H](O)[C@@H](C)C(=O)[C@@H](C)[C@H](O)[C@@H](C)/C=C/C(=O)O[C@@H]2[C@H](C)[C@H](CC1)O[C@]1(CC[C@H](C)[C@H](C[C@@H](C)O)O1)[C@H]2C` [Oligomycin, oligomycin, reference compound], the results for the ATP hydrolysis entry in assay [1] and in assay [2] were “dose dependent inhibition of ATP hydrolysis” and “worked as expected”, respectively. In assay [3], the ATP synthesis entry is given as “worked as expected”.
